Data published in ChEMBL document CHEMBL1152546, “N-[2-chloro-9H-purin-6-yl]-N-cyclopropylglycylamino acids and derivatives: synthesis, evaluation as a class of novel analgesics, and 3D QSAR analysis” (2009).

Experiments:
Mus musculus [1] = experiment: Analgesic activity in ICR mouse assessed as pain threshold variation at 12.5 umol/kg, po administered as single dose measured after 90 mins by tail flick test relative to control; assay type: functional
Mus musculus [2] = experiment: Analgesic activity in ICR mouse assessed as pain threshold variation at 12.5 umol/kg, po administered as single dose measured after 120 mins by tail flick test relative to control; assay type: functional
Mus musculus [3] = experiment: Analgesic activity in ICR mouse assessed as pain threshold variation at 25 umol/kg, po administered as single dose measured after 90 mins by tail flick test relative to control; assay type: functional
Mus musculus [4] = experiment: Analgesic activity in ICR mouse assessed as pain threshold variation at 25 umol/kg, po administered as single dose measured after 60 mins by tail flick test relative to control; assay type: functional
Mus musculus [5] = experiment: Analgesic activity in ICR mouse assessed as pain threshold variation at 25 umol/kg, po administered as single dose measured after 180 mins by tail flick test relative to control; assay type: functional
Mus musculus [6] = experiment: Analgesic activity in ICR mouse assessed as pain threshold variation at 12.5 umol/kg, po administered as single dose measured after 180 mins by tail flick test relative to control; assay type: functional
Mus musculus [7] = experiment: Analgesic activity in ICR mouse assessed as pain threshold variation at 12.5 umol/kg, po administered as single dose measured after 30 mins by tail flick test relative to control; assay type: functional
Mus musculus [8] = experiment: Analgesic activity in po dosed ICR mouse assessed as pain threshold variation administered as single dose measured after 30 to 180 mins by tail flick test; assay type: functional, organism-based
Mus musculus [9] = experiment: Analgesic activity in ICR mouse assessed as pain threshold variation at 6.25 umol/kg, po administered as single dose measured after 60 mins by tail flick test relative to control; assay type: functional
Mus musculus [10] = experiment: Analgesic activity in ICR mouse assessed as pain threshold variation at 12.5 umol/kg, po administered as single dose measured after 150 mins by tail flick test relative to control; assay type: functional
Mus musculus [11] = experiment: Analgesic activity in ICR mouse assessed as pain threshold variation at 6.25 umol/kg, po administered as single dose measured after 150 mins by tail flick test relative to control; assay type: functional
Mus musculus [12] = experiment: Analgesic activity in ICR mouse assessed as pain threshold variation at 6.25 umol/kg, po administered as single dose measured after 180 mins by tail flick test relative to control; assay type: functional
Mus musculus [13] = experiment: Analgesic activity in ICR mouse assessed as pain threshold variation at 25 umol/kg, po administered as single dose measured after 30 mins by tail flick test relative to control; assay type: functional
Mus musculus [14] = experiment: Analgesic activity in ICR mouse assessed as pain threshold variation at 25 umol/kg, po administered as single dose measured after 120 mins by tail flick test relative to control; assay type: functional
Mus musculus [15] = experiment: Analgesic activity in ICR mouse assessed as pain threshold variation at 25 umol/kg, po administered as single dose measured after 150 mins by tail flick test relative to control; assay type: functional
Mus musculus [16] = experiment: Analgesic activity in ICR mouse assessed as pain threshold variation at 6.25 umol/kg, po administered as single dose measured after 30 mins by tail flick test relative to control; assay type: functional
Mus musculus [17] = experiment: Analgesic activity in ICR mouse assessed as pain threshold variation at 6.25 umol/kg, po administered as single dose measured after 120 mins by tail flick test relative to control; assay type: functional
Mus musculus [18] = experiment: Analgesic activity in ICR mouse assessed as pain threshold variation at 12.5 umol/kg, po administered as single dose measured after 60 mins by tail flick test relative to control; assay type: functional
Mus musculus [19] = experiment: Analgesic activity in ICR mouse assessed as pain threshold variation at 6.25 umol/kg, po administered as single dose measured after 90 mins by tail flick test relative to control; assay type: functional

Q: What does the source list for N=C(N)NCCC[C@H](NC(=O)CN(c1nc(Cl)nc2[nH]cnc12)C1CC1)C(=O)O?
A: Activity (Mus musculus [1]): 18.43%; Activity (Mus musculus [2]): 10.28%; Activity (Mus musculus [3]): 27.59%; Activity (Mus musculus [4]): 50.97%; Activity (Mus musculus [5]): 5.19%; Activity (Mus musculus [6]): 5.24%; Activity (Mus musculus [7]): 22.24%; Activity (Mus musculus [8]): Dose-dependent effect; Activity (Mus musculus [9]): 17.53%; Activity (Mus musculus [10]): 6.93%; Activity (Mus musculus [11]): 5.09%; Activity (Mus musculus [12]): 2.15%; Activity (Mus musculus [13]): 45.41%; Activity (Mus musculus [14]): 17.03%; Activity (Mus musculus [15]): 7.19%; Activity (Mus musculus [16]): 8.9%; Activity (Mus musculus [17]): 9.52%; Activity (Mus musculus [18]): 39.76%; Activity (Mus musculus [19]): 12.08%

Q: Which Activity (Mus musculus [1]) does the source give for NCCCC[C@H](NC(=O)CN(c1nc(Cl)nc2[nH]cnc12)C1CC1)C(=O)O here?
A: 22.04%

Q: What about the Activity (Mus musculus [2]) of the same compound?
A: 9.79%

Q: And the Activity (Mus musculus [3])?
A: 28.84%

Q: And the Activity (Mus musculus [4])?
A: 53.76%

Q: What about the Activity (Mus musculus [5]) of the same compound?
A: 6.07%

Q: What about the Activity (Mus musculus [6]) of the same compound?
A: 2.99%

Q: And the Activity (Mus musculus [7])?
A: 16.33%

Q: And the Activity (Mus musculus [8])?
A: Dose-dependent effect

Q: And the Activity (Mus musculus [9])?
A: 16.6%

Q: And the Activity (Mus musculus [10])?
A: 7.39%

Q: And the Activity (Mus musculus [11])?
A: 2.82%

Q: And the Activity (Mus musculus [12])?
A: 2.61%

Q: What about the Activity (Mus musculus [13]) of the same compound?
A: 31.18%

Q: And the Activity (Mus musculus [14])?
A: 16.37%

Q: What about the Activity (Mus musculus [15]) of the same compound?
A: 11.64%

Q: And the Activity (Mus musculus [16])?
A: 8.04%

Q: And the Activity (Mus musculus [17])?
A: 7.05%

Q: What about the Activity (Mus musculus [18]) of the same compound?
A: 31.34%

Q: What about the Activity (Mus musculus [19]) of the same compound?
A: 14.48%

Q: What does the source list for NCCCC[C@H](NC(=O)CN(c1nc(Cl)nc2[nH]cnc12)C1CC1)C(=O)OCc1ccccc1?
A: Activity (Mus musculus [1]): 25.42%; Activity (Mus musculus [2]): 11.35%; Activity (Mus musculus [3]): 35.27%; Activity (Mus musculus [4]): 41.16%; Activity (Mus musculus [5]): 2.24%; Activity (Mus musculus [6]): 3.72%; Activity (Mus musculus [7]): 18.5%; Activity (Mus musculus [8]): Dose-dependent effect; Activity (Mus musculus [9]): 14.83%; Activity (Mus musculus [10]): 9.91%; Activity (Mus musculus [11]): 4.87%; Activity (Mus musculus [12]): 3.95%; Activity (Mus musculus [13]): 26.13%; Activity (Mus musculus [14]): 16.79%; Activity (Mus musculus [15]): 9.88%; Activity (Mus musculus [16]): 9.19%; Activity (Mus musculus [17]): 9.01%; Activity (Mus musculus [18]): 29.98%; Activity (Mus musculus [19]): 11.3%

Q: What does the source list for O=C(CN(c1nc(Cl)nc2[nH]cnc12)C1CC1)NCC(=O)OCc1ccccc1?
A: Activity (Mus musculus [1]): 19%; Activity (Mus musculus [2]): 14.62%; Activity (Mus musculus [3]): 27.18%; Activity (Mus musculus [4]): 41.91%; Activity (Mus musculus [5]): 8.31%; Activity (Mus musculus [6]): 5.45%; Activity (Mus musculus [7]): 11.25%; Activity (Mus musculus [8]): Dose-dependent effect; Activity (Mus musculus [9]): 13.19%; Activity (Mus musculus [10]): 6.2%; Activity (Mus musculus [11]): 3.47%; Activity (Mus musculus [12]): 2.64%; Activity (Mus musculus [13]): 18.65%; Activity (Mus musculus [14]): 21.69%; Activity (Mus musculus [15]): 17.99%; Activity (Mus musculus [16]): 5.73%; Activity (Mus musculus [17]): 8.04%; Activity (Mus musculus [18]): 23.74%; Activity (Mus musculus [19]): 9.93%

Q: C[C@H](NC(=O)CN(c1ncnc2c1ncn2C1CCCCO1)C1CC1)C(=O)OCc1ccccc1 (stereo partly drawn) was tested. Which Activity (Mus musculus [3]) did it give?
A: 32.06%

Q: And the Activity (Mus musculus [4])?
A: 53%

Q: What about the Activity (Mus musculus [5]) of the same compound?
A: 5.96%

Q: What about the Activity (Mus musculus [13]) of the same compound?
A: 55.91%

Q: And the Activity (Mus musculus [14])?
A: 25.3%

Q: And the Activity (Mus musculus [15])?
A: 6.01%

Q: Which results are given for NC(=O)CC[C@H](NC(=O)CN(c1nc(Cl)nc2[nH]cnc12)C1CC1)C(=O)O?
A: Activity (Mus musculus [3]): 41.1%; Activity (Mus musculus [4]): 38.4%; Activity (Mus musculus [5]): 9.07%; Activity (Mus musculus [13]): 33.11%; Activity (Mus musculus [14]): 17.75%; Activity (Mus musculus [15]): 11.38%

Q: How did the Activity (Mus musculus [3]) turn out when CC(C)C[C@H](NC(=O)CN(c1ncnc2c1ncn2C1CCCCO1)C1CC1)C(=O)OCc1ccccc1 (stereo partly drawn) was run?
A: 28.22%

Q: What about the Activity (Mus musculus [4]) of the same compound?
A: 34.19%

Q: What about the Activity (Mus musculus [5]) of the same compound?
A: 0.04%

Q: And the Activity (Mus musculus [13])?
A: 26.2%

Q: And the Activity (Mus musculus [14])?
A: 12.79%

Q: What about the Activity (Mus musculus [15]) of the same compound?
A: 6.47%

Q: C[C@H](NC(=O)CN(c1nc(Cl)nc2[nH]cnc12)C1CC1)C(=O)OCc1ccccc1 was tested. Which Activity (Mus musculus [3]) did it give?
A: 44.16%

Q: What about the Activity (Mus musculus [4]) of the same compound?
A: 64.29%

Q: And the Activity (Mus musculus [5])?
A: 15.09%

Q: What about the Activity (Mus musculus [13]) of the same compound?
A: 41.23%

Q: What about the Activity (Mus musculus [14]) of the same compound?
A: 36.13%

Q: And the Activity (Mus musculus [15])?
A: 23%

Q: With O=C(CN(c1nc(Cl)nc2[nH]cnc12)C1CC1)N[C@@H](Cc1cnc[nH]1)C(=O)O as the compound, how does the Activity (Mus musculus [3]) read?
A: 16.07%

Q: What about the Activity (Mus musculus [4]) of the same compound?
A: 27.68%

Q: And the Activity (Mus musculus [5])?
A: 3.39%

Q: What about the Activity (Mus musculus [13]) of the same compound?
A: 31.71%

Q: What about the Activity (Mus musculus [14]) of the same compound?
A: 10.66%

Q: And the Activity (Mus musculus [15])?
A: 4.42%

Q: NC(=O)CC[C@H](NC(=O)CN(c1nc(Cl)nc2[nH]cnc12)C1CC1)C(=O)OCc1ccccc1 was tested. Which Activity (Mus musculus [3]) did it give?
A: 42.83%

Q: And the Activity (Mus musculus [4])?
A: 33.07%

Q: And the Activity (Mus musculus [5])?
A: 19.17%

Q: What about the Activity (Mus musculus [13]) of the same compound?
A: 30.76%

Q: What about the Activity (Mus musculus [14]) of the same compound?
A: 36.04%

Q: What about the Activity (Mus musculus [15]) of the same compound?
A: 31.07%

Q: For O=C(CN(c1nc(Cl)nc2[nH]cnc12)C1CC1)N[C@@H](CO)C(=O)OCc1ccccc1, which Activity (Mus musculus [3]) is on record?
A: 34.53%

Q: And the Activity (Mus musculus [4])?
A: 34.17%

Q: And the Activity (Mus musculus [5])?
A: 11.5%

Q: And the Activity (Mus musculus [13])?
A: 31.88%

Q: What about the Activity (Mus musculus [14]) of the same compound?
A: 34.5%

Q: And the Activity (Mus musculus [15])?
A: 27.88%
